PMC4433622 (Cancer research, 2015)
Residue numbers refer to the chain shown, from its start. In names and notes the source's numbering stands. Peptide text beside a SMILES is read from it. * marks the point of attachment. Cbz = O=C(OCc1ccccc1)*; CH2F = FC*

Assays:
[1] = tested on: IκBα, IKKα/β in MCF-7 cells; test: TNFα-induced IκBα degradation and IKKα/β phosphorylation, immunoblotting; type: cell-based, human; settings: for TNFα-induced IκBα degradation / TNFα-induced IKKα/β phosphorylation: TNFα 10 ng/ml, Z-10 7.5 µM, Z-12 5 µM
[2] = tested on: MCF-7 cells; test: Apoptosis; type: cell-based, human; settings: for apoptosis (PARP cleavage, nuclear fragmentation) together with TNFα / apoptosis (PARP cleavage, nuclear fragmentation), agent alone: MCF-7 cells, 9 h; for apoptosis (PARP cleavage, nuclear fragmentation) together with TNFα: with TNFα 10 ng/ml, Z-10 7.5 µM, Z-12 5 µM; for PARP cleavage induced by the combination of TNFα and Z compounds: effect of added agent on the combination
[3] = tested on: Akt; settings: by preventing the interaction of tRXRα and p85α; cited from earlier work
[4] = target: RARγ (Homo sapiens, UniProt P13631); test: Mammalian one hybrid assay, RARγ chimeric reporter; type: cell-based; settings: HEK293T cells, 5 µM, 12 h
[5] = target: T1, RXRα-LBD (Homo sapiens, UniProt P19793); test: Ligand competition assay with [3H]9-cis-RA; type: binding
T1 sequence (P19793 223-462): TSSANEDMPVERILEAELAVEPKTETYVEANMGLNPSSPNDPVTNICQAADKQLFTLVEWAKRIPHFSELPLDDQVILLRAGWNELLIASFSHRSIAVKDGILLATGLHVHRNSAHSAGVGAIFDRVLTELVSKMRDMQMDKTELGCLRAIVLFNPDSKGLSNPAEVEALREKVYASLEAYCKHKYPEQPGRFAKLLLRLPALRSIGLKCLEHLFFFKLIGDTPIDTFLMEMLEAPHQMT

[6] = tested on: p65 in MCF-7 cells; test: TNFα-induced p65 nuclear translocation, immunostaining; type: cell-based, human; settings: 10 µM pretreatment 1 h, TNFα 10 ng/ml 30 min
[7] = target: Gal4-DBD-ERα-LBD (Homo sapiens, UniProt P03372); test: Mammalian one hybrid assay, Gal4-DBD-ERα-LBD; type: cell-based; settings: HEK293T cells, 5 µM, 12 h
[8] = tested on: MCF-7 xenografts; test: MCF-7 xenografts in nude mice; type: in vivo, Nude mice (BALB/c); settings: MCF-7 bearing mice, 30 mg/kg oral once a day
[9] = target: LXRα (Homo sapiens, UniProt Q13133); test: Mammalian one hybrid assay, LXRα chimeric reporter; type: cell-based; settings: HEK293T cells, 5 µM, 12 h
[10] = target: T1, RXRα-LBD; test: Surface plasmon resonance; type: binding
[11] = target: Gal4-DBD-RXRα-LBD C432S (Homo sapiens, UniProt P19793, C432S); test: Mammalian one hybrid assay, Gal4-DBD-RXRα-LBD C432S mutant; type: cell-based; settings: HEK293T cells; 9-cis-RA 0.1 µM, Z-10 and Z-12 5 µM
[12] = target: tRXRα with TRAF2 (Homo sapiens, UniProt P19793); test: TNFα-induced TRAF2/tRXRα complex formation, co-immunoprecipitation; settings: HEK293T cells, 5 µM 1 h, TNFα 40 ng/ml 15 min
[13] = target: Gal4-DBD-RARα-LBD (Homo sapiens, UniProt P10276); test: Mammalian one hybrid assay, Gal4-DBD-RARα-LBD; type: cell-based; settings: HEK293T cells, 5 µM, 12 h
[14] = target: T1, RXRα-LBD; test: Non-denaturing PAGE of RXRα-LBD oligomers; settings: Z compounds 10 µM, 9-cis-RA 0.5 µM, 3 h
[15] = target: T1, RXRα-LBD; test: Differential scanning calorimetry; type: binding
[16] = target: GR (Homo sapiens, UniProt P04150); test: Mammalian one hybrid assay, GR chimeric reporter; type: cell-based; settings: HEK293T cells, 5 µM, 12 h
[17] = target: RXRα homodimer (Homo sapiens, UniProt P19793); test: RXRE-luciferase reporter assay; settings: HEK293T cells, 12 h
[18] = target: PPARγ (Homo sapiens, UniProt P37231); test: Mammalian one hybrid assay, PPARγ chimeric reporter; type: cell-based; settings: HEK293T cells, 5 µM, 12 h
[19] = target: T2, Gal4-DBD-RXRα-LBD (Homo sapiens, UniProt P19793); test: Mammalian one hybrid assay, Gal4-DBD-RXRα-LBD with pG5-luc reporter; type: cell-based; settings: HEK293T cells; for Gal4-DBD-RXRα-LBD transcriptional activity (relative luciferase activity): 10 µM, 12 h
T2 sequence (P19793 227-458 limits assumed): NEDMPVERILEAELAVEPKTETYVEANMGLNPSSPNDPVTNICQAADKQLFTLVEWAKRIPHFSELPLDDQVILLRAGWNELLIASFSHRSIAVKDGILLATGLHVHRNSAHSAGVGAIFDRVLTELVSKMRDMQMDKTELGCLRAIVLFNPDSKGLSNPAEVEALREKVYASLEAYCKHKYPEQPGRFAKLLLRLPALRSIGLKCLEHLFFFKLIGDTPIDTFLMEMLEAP

[20] = tested on: tRXRα with p85α; test: TNFα-induced interaction of tRXRα with p85α; type: cell-based
[21] = target: Gal4-DBD-RXRα-LBD/R316E (Homo sapiens, UniProt P19793, R316E); test: Mammalian one hybrid assay, Gal4-DBD-RXRα-LBD/R316E; type: cell-based; settings: HEK293T cells; 9-cis-RA 0.1 µM, Z-10 and Z-12 5 µM
[22] = tested on: RIP1 in MCF-7 cells; test: tRXRα-promoted TNFα-induced RIP1 ubiquitination; type: cell-based, human; settings: 10 µM 1 h, TNFα 20 ng/ml 5 min
[23] = tested on: NFκB; test: NFκB reporter gene assay; type: cell-based
[24] = target: the molecule itself; test: SEC

Gal4-DBD-ERα-LBD, sequence (P03372 311-547 limits assumed): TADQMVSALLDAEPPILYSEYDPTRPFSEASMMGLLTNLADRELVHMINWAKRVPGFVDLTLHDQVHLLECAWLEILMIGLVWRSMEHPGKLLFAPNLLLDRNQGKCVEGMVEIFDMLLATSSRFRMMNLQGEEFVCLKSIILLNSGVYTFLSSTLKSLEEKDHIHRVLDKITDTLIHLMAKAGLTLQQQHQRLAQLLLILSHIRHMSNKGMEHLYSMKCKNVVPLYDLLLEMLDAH
LXRα, sequence (Q13133 209-447 limits assumed): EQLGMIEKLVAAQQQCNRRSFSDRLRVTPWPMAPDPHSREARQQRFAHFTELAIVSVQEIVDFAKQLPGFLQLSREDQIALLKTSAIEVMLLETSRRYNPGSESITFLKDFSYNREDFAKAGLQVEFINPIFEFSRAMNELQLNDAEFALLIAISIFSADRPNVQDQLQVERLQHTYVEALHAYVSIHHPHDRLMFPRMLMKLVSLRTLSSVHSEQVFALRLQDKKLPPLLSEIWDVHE
Gal4-DBD-RARα-LBD, sequence (P10276 183-417 limits assumed): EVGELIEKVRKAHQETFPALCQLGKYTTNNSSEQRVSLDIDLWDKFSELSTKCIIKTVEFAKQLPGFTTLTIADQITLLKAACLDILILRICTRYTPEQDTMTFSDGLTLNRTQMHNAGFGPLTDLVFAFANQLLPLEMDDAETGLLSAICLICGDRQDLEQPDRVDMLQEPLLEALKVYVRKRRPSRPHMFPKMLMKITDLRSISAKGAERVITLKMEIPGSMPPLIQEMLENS
RXRα homodimer, sequence (P19793 whole entry): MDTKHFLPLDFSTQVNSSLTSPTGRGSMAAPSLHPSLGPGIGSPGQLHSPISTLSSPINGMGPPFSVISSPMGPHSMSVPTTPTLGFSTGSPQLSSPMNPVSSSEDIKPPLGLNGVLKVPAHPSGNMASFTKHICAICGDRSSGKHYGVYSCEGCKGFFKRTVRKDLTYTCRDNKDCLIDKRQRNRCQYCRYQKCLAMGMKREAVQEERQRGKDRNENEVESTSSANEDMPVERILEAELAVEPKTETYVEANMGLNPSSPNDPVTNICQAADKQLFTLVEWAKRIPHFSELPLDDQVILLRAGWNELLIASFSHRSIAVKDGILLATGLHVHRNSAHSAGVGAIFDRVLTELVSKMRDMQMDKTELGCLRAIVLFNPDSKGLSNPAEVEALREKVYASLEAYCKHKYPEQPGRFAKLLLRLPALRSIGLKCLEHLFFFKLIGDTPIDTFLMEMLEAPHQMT
RARγ, sequence (P13631 185-419 limits assumed, species assumed): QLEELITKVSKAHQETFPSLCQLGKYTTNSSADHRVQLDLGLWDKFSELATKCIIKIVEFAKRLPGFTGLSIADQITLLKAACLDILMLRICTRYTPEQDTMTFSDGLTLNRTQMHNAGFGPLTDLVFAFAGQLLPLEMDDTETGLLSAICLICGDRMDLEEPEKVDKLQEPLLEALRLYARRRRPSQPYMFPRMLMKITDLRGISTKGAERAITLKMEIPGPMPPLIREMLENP
GR, sequence (P04150 524-758 limits assumed): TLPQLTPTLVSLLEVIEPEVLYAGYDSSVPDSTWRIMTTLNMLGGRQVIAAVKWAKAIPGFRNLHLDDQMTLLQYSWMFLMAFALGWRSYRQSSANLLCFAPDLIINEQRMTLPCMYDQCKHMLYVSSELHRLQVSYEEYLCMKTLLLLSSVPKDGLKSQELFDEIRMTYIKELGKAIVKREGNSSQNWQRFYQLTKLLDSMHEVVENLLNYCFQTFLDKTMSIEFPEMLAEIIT
PPARγ, sequence (P37231 238-503 limits assumed, species assumed): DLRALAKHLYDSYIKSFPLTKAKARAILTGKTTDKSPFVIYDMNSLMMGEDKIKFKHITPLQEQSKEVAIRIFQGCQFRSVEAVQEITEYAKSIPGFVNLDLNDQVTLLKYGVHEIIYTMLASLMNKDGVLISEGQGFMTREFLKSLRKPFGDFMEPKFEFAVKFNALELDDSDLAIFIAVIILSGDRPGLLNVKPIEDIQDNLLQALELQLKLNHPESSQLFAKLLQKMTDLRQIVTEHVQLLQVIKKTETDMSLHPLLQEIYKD
tRXRα with TRAF2, sequence (P19793 81-462 limits assumed): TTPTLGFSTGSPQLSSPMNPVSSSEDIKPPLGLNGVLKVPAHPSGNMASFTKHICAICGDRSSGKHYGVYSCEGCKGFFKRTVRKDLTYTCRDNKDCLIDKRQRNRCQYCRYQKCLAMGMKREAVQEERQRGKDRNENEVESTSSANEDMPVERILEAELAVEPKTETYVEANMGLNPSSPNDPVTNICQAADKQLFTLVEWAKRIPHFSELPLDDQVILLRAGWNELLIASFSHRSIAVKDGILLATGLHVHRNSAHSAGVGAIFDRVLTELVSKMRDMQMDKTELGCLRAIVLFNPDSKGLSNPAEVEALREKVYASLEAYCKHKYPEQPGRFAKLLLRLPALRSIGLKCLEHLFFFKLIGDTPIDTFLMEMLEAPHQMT
Gal4-DBD-RXRα-LBD C432S, sequence (P19793 227-458 C432S limits assumed): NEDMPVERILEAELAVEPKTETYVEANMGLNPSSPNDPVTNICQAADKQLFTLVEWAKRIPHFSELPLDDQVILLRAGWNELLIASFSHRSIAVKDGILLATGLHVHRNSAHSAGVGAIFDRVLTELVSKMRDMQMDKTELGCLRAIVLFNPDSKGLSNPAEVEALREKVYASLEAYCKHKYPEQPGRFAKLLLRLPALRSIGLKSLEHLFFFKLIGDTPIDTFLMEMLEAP
Gal4-DBD-RXRα-LBD/R316E, sequence (P19793 227-458 R316E limits assumed): as the sequence (P19793 227-458 C432S limits assumed) above, with R90E, S206C counted along it

CCCCCOc1cc2c(cc1-c1cc(/C=C/C(=O)O)ccc1O)C(C)(C)CCC2(C)C [UVI3003]
TNFα-induced IκBα degradation ([1]; MCF-7 cells): did not show apparent effects | apoptosis (PARP cleavage, nuclear fragmentation) together with TNFα [2]: little effect | PARP cleavage induced by the combination of TNFα and Z compounds [2]: able to suppress

CC1=C(CC(=O)O)c2cc(F)ccc2/C1=C\c1ccc(C(C)C)cc1 [K-80003]
inhibition of TNFα-induced Akt activation [3]: could inhibit

CC1=C(/C=C/C(C)=C\C=C\C(C)=C\C(=O)O)C(C)(C)CCC1 [9-cis-RA, 9-cis-retinoic acid]
TNFα-induced IκBα degradation ([1]; MCF-7 cells): did not show apparent effects | apoptosis (PARP cleavage, nuclear fragmentation) together with TNFα [2]: little effect | PARP cleavage induced by the combination of TNFα and Z compounds [2]: able to suppress

O=[N+]([O-])/C=C/c1c2ccccc2cc2ccccc12 [Z-12, (E)-9-(2-nitrovinyl)anthracene]
TNFα-induced IKKα/β phosphorylation ([1]; MCF-7 cells): significantly inhibited | TNFα-induced IκBα degradation ([1]; MCF-7 cells): significantly inhibited | effect on inhibiting TNFα-induced IκBα degradation when TRAF2 expression was suppressed by siRNA ([1]; MCF-7 cells, TRAF2 siRNA 36 h, TNFα 10 ng/ml 30 min): dramatically reduced | activation of RARγ chimeric reporter [4]: neither of them significantly activated | IC50 [5]: 810 nM | TNFα-induced p65 nuclear translocation [6]: significantly inhibited | activation of ERα chimeric reporter [7]: neither of them significantly activated | tumor growth and apoptosis of cancer cells, compound alone [8]: Tumor growth inhibition and extensive apoptosis of cancer cells | activation of LXRα chimeric reporter [9]: neither of them significantly activated | Kd [10]: 1950 nM | activation of Gal4-DBD-RXRα-LBD with Cys432 mutated to Ser [11]: completely incapacitated | TNFα-induced interaction of tRXRα with TRAF2 [12]: strongly inhibited | activation of RARα chimeric reporter [13]: neither of them significantly activated | RXRα-LBD tetramer/dimer formation on native gel [14]: induced homodimer formation | Tm values of RXRα-LBD protein (DSC) [15]: shifted higher | activation of GR chimeric reporter [16]: neither of them significantly activated | effect on 9-cis-RA-induced RXRα homodimer transactivation ([17]; 5 µM with 9-cis-RA 0.1 µM): inhibited 9-cis-RA-induced transactivation | transactivation of RXRα homodimer (RXRE-luciferase) ([17]; 5 µM): failed to induce the transactivation | apoptosis (PARP cleavage, nuclear fragmentation), agent alone [2]: did not happen | apoptosis (PARP cleavage, nuclear fragmentation) together with TNFα [2]: significant apoptosis | activation of PPARγ chimeric reporter [18]: neither of them significantly activated | RXRα transactivation, dose dependence [19]: dose-dependently activated | RXRα transactivation relative to activity of 0.1 µM 9-cis-RA ([19]; compound at 10 µM, % of activity of 0.1 µM 9-cis-RA): about 50% | inhibition of TNFα-induced interaction of tRXRα with p85α [20]: could not inhibit | transactivation of Gal4-DBD-RXRα-LBD/R316E [21]: strongly activated

TNFα
apoptosis (PARP cleavage, nuclear fragmentation), agent alone [2]: did not happen

Cc1ccc(/C=C/[N+](=O)[O-])cc1 [Z-1, (E)-1-methyl-4-(2-nitrovinyl)benzene]
Gal4-DBD-RXRα-LBD transcriptional activity (relative luciferase activity) [19]: selectively activated

CD3254
TNFα-induced IκBα degradation ([1]; MCF-7 cells): did not show apparent effects | apoptosis (PARP cleavage, nuclear fragmentation) together with TNFα [2]: little effect | PARP cleavage induced by the combination of TNFα and Z compounds [2]: able to suppress

COC(=O)C[C@H](NC(=O)[C@H](C)NC(=O)[C@@H](NC(=O)OCc1ccccc1)C(C)C)C(=O)CF [Z-VAD-FMK] (Cbz-Val-Ala-Asp(OMe)-CH2F)
PARP cleavage induced by the combination of TNFα and Z compounds [2]: completely blocked

O=[N+]([O-])/C=C/c1ccc2ccccc2c1 [Z-11, (E)-2-(2-nitrovinyl)naphthalene]
IC50 [5]: 330 nM | RXRα-LBD tetramer/dimer formation on native gel [14]: induced higher levels of RXRα-LBD oligomerization | Tm values of RXRα-LBD protein (DSC) [15]: shifted higher | Gal4-DBD-RXRα-LBD transcriptional activity (relative luciferase activity) [19]: unable to activate RXRα

O=[N+]([O-])/C=C/c1cccc2ccccc12 [Z-10, (E)-1-(2-nitrovinyl)naphthalene]
inhibitory effect on TNFα-induced IκBα degradation, MCF-7 versus H460 cells ([1]; 7.5 µM 1 h, TNFα 30 min, MCF-7 express higher RXRα and tRXRα than H460): stronger in MCF-7 cells | TNFα-induced IKKα/β phosphorylation ([1]; MCF-7 cells): significantly inhibited | TNFα-induced IκBα degradation ([1]; MCF-7 cells): significantly inhibited | activation of RARγ chimeric reporter [4]: neither of them significantly activated | TNFα-induced p65 nuclear translocation [6]: significantly inhibited | activation of ERα chimeric reporter [7]: neither of them significantly activated | tumor growth and apoptosis of cancer cells, compound alone [8]: Tumor growth inhibition and extensive apoptosis of cancer cells | activation of LXRα chimeric reporter [9]: neither of them significantly activated | activation of RARα chimeric reporter [13]: neither of them significantly activated | activation of GR chimeric reporter [16]: neither of them significantly activated | apoptosis (PARP cleavage, nuclear fragmentation), agent alone [2]: did not happen | apoptosis (PARP cleavage, nuclear fragmentation) together with TNFα [2]: significant apoptosis | activation of PPARγ chimeric reporter [18]: neither of them significantly activated | RXRα/Δ80-promoted TNFα-induced RIP1 ubiquitination [22]: largely blocked | inhibition of NFκB activation by TNFα (reporter gene assay) [23]: dose-dependently inhibited

B1: RXRα-LBD/C432W (domain or fragment, human, UniProt P19793 223-462, looked up)
chain: T1 sequence (P19793 223-462) with C210W
stoichiometry N [24]: 2
